Measurements from patent US20060171988A1, “Method of treatment using foams as artificial lymph nodes” (priority 2005, published 2006).
“Also recorded” adds a separate entry of the source.

Legend:
EL-4 cells = assay: 51Cr release assay (CTL activity) with T cells from immunized mice, EL-4 targets; format: in vivo, mouse
Description: Immunization: On day 9 after surgery, wounds had generally healed and healthy mice were used for immunization with 30 μg peptide per mouse. Depending on the experiment, CpG deoxyoligonucleotide 1668 (5 -100 pmole/mouse), mouse GM-CSF (10^3 units/mouse) and Titermax classic were used as adjuvants. Generally, injection volume was adjusted to 200 μl per mouse with sterile PBS. When applying Titermax classic, all other injection components were mixed and then added in small portions to an equal volume of Titermax classic. After each addition, the vial was rigorously mixed to obtain a white, semi-fluid water-in-oil suspension. […]
T-cell culture and ^51Cr release assay: On day 9 after immunization, mice were sacrificed and 2*10^7 splenocytes were stimulated in vitro for 5 days using 10^7 irradiated (30 Gy) splenocytes from untreated C57BL/6 mice as feeder cells and 5 ng/ml peptide. Cytotoxic T lymphocyte (CTL) activity was measured in a standard ^51Cr release assay (Brunner et al., 1968). Briefly, stimulated cells were harvested, counted and plated out in a series of […] in a round-bottom 96-well plate. […] After intense washing with cell culture medium, 10^4 of these cells were added to each well of the 96-well plate as targets. ^51Cr release was measured after 4 h incubation at 37° C./5% (v/v) CO2.

[1] = system: ovalbumin-transfected E.G7 mouse tumor cells; assay: 51Cr release assay (CTL activity) with T cells from immunized mice, E.G7 targets; format: in vivo
Description: Immunization: On day 9 after surgery, wounds had generally healed and healthy mice were used for immunization with 30 μg peptide per mouse. Depending on the experiment, CpG deoxyoligonucleotide 1668 (5 -100 pmole/mouse), mouse GM-CSF (10^3 units/mouse) and Titermax classic were used as adjuvants. Generally, injection volume was adjusted to 200 μl per mouse with sterile PBS. When applying Titermax classic, all other injection components were mixed and then added in small portions to an equal volume of Titermax classic. After each addition, the vial was rigorously mixed to obtain a white, semi-fluid water-in-oil suspension. Injection was either performed subcutaneously into the nape of the neck, the base of tail and the footpad, using a volume ratio of 3:1:1, respectively, or directly into the centre of the right foam implantate.
T-cell culture and ^51Cr release assay: On day 9 after immunization, mice were sacrificed and 2*10^7 splenocytes were stimulated in vitro for 5 days using 10^7 irradiated (30 Gy) splenocytes from untreated C57BL/6 mice as feeder cells and 5 ng/ml peptide. Cytotoxic T lymphocyte (CTL) activity was measured in a standard ^51Cr release assay (Brunner et al., 1968). Briefly, stimulated cells were harvested, counted and plated out in a series of […] in a round-bottom 96-well plate. 10^6 EL-4 cells (C57BL/6-derived T cell lymphoma; ATCC no. TIB-39) were loaded with 50 pmole peptide and [^51Cr] Na2CrO4-labeled at 37° C. for 30 min. After intense washing with cell culture medium, 10^4 of these cells were added to each well of the 96-well plate as targets. ^51Cr release was measured after 4 h incubation at 37° C./5% (v/v) CO2.

[2] = s.c. injection into the nape of the neck, peptide alone, T cells from spleen or lymph nodes of immunized C57BL/6 mice

Row | Sequence | maximum lysis above unspecific background (EL-4 cells; peptide injected into s.c. implanted PVA foams, T cells from axillary and cervical lymph nodes, independent second experiment) [%] | maximum lysis above unspecific background ([1]; peptide injected into s.c. implanted PVA foams, T cells from spleen) | lysis of ovalbumin-transfected E.G7 cells by T cells ([1]; peptide injected into s.c. implanted PVA foams, T cells from spleen or lymph node) | immune response / recognition of E.G7 target cells by T cells [1, 2] | recognition of untransfected EL-4 target cells by T cells (EL-4 cells; [2])
1 | ASNENMETM (peptide ASNENMETM derived from influenza nucleoprotein (amino acid 366-374)) [peptide derived from influenza nucleoprotein (amino acid 366-374)] | 37 | – | – | – | –
2 | SIINFEKL (Ovalbumin-derived SIINFEKL peptide (amino acid 257-264)) [peptide derived from chicken ovalbumin (amino acid 257-264), model ligand of mouse MHC class I allele H2-Kb] | – | approximately 45% | able to lyse | Neither ovalbumin-transfected E.G7 mouse tumor cells of the H2-b haplotype, nor untransfected H2-b positive EL-4 mouse tumor cells are recognized; also recorded: did not lead to detectable immune responses | nor untransfected H2-b positive EL-4 mouse tumor cells were recognized
